What was measured:
[1] = test system: CHO-K1 cells; assay: Cell viability, MTS colorimetric assay; assay type: cell-based, Chinese hamster; conditions: 24 hours; for Cytotoxicity: 30 μM; for Change in survival rate: 100 μM
Method: Chinese hamster ovary (CHO)-K1 cells were cultured in DMEM medium containing 10% fetal bovine serum (FBS), 100 units/ml of penicillin and 100 μg/ml streptomycin.
The cell viability was measured using the CellTiter 96® AQueous One Solution cell proliferation assay kit (Promega, Madison, WI, USA). CHO-K1 cells were cultured with medium supplemented with 10% FBS in 96-well plates for 24 hours, and then compounds or vehicle were treated in the medium, and after 24 hours, the medium was completely removed, and the MTS assay was performed as recommended in the supplier's protocol. The absorbance of Formazan was measured at a wavelength of 490 nm using an Infinite M200 microplate reader (Tecan, Austria).

[2] = target: T1, human wild-type (WT)-SLC26A3 (Homo sapiens, UniProt P40879); assay: SLC26A3 Cl−/I− exchange activity, YFP fluorescence in LN-215 cells; assay type: cell-based; conditions: for IC50: LN-215-YFP cells, FIG. 2, read-out: IC50 of Cl−/I− anion exchange by SLC26A3
T1 construct: expressed in transfected cells
T1 sequence (P40879 1-764): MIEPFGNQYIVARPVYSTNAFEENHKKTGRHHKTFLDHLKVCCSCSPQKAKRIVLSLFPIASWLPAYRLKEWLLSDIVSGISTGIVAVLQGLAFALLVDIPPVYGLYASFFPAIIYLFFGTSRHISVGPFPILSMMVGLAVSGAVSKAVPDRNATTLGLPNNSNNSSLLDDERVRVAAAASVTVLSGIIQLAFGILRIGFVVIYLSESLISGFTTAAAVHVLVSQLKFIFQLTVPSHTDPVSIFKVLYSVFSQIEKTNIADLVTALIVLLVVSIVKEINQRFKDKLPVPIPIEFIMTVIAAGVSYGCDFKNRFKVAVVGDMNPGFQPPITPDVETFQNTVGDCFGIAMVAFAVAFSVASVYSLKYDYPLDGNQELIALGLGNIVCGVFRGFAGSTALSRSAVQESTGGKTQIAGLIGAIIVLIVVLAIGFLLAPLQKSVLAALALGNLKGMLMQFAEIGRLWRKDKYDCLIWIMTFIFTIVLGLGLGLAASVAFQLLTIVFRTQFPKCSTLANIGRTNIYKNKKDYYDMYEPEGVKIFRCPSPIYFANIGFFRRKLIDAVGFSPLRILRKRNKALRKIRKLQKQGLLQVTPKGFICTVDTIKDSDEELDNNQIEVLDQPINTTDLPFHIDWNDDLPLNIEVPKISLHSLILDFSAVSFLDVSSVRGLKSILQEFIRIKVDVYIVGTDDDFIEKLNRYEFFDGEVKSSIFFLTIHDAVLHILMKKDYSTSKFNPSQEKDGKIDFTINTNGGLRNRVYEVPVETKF
Method: LN-215 cells were cultured in DMEM medium containing 10% fetal bovine serum (FBS), 100 units/ml of penicillin and 100 μg/ml streptomycin. LN-215 cells were stably transfected with pcDNA3.1 encoding the halide sensor YFP-H148Q/I152L/F46L and human wild-type (WT)-SLC26A3.
LN-215 cells expressing human WT SLC26A3 and YFP-F46L/H148Q/I152L were plated in 96-well microplates at a density of 2×10^4 cells per well, and cultured for 48 hours. Each well of the cell cultured 96-well plate was washed 2 times with 200 μL of PBS, and filled with 50 μL of HEPES buffered solution (140 mM NaCl, 5 mM KCl, 1 mM MgCl2, 1 mM CaCl2), 10 mM glucose and 10 mM HEPES (pH 7.4)). Test compounds (1 μL) were added to a final concentration of 100 μM. After culturing at 37° C. for 10 minutes, the 96-well plate was located on the FLUOstar Omega Microplate Reader (BMG Labtech, Ortenberg, Germany) for a fluorescence assay. Fluorescence was recorded continuously (400 ms per point) for 1 second (baseline), whereby each well was assayed individually for SLC26A3-mediated I-influx. Then, 50 μL of NaI-substituted HEPES buffered solution (replacing NaCl with NaI) was added using a liquid injector at 1 second, and YFP fluorescence was recorded for 5 seconds. The initial iodide influx rate was determined from the initial slope of fluorescence by nonlinear regression, after the injection of iodide.
In the case of SLC26A3 and SLC26A6, each transporter protein and halide sensitive YFP were expressed in LN-215 cells to measure the activity of the transporter protein.
Other details were carried out in the same manner as Example 5.

In the case of `Cc1ccc2[nH]c(C(=O)O)c(CC(=O)N3CCN(c4c(C)cccc4Cl)CC3)c2c1` [YPI-A4948, 3-(2-(4-(2-Chloro-6-methylphenyl)piperazin-1-yl)-2-oxoethyl)-5-methyl-1H-indole-2-carboxylic acid], the Cytotoxicity [1] is reported as “no cytotoxicity”, the “Change in survival rate” value [1] is reported as “around 10%” and the “Selectivity for pendrin than SLC26A3” value [2] is reported as “about 18 times”. The IC50 [2] was 11.4 µM.

With `Cc1ccc(C)c(N2CCN(C(=O)Cc3c(C(=O)O)[nH]c4ccc(Cl)cc34)CC2)c1` [YPI-H05, 5-chloro-3-(2-(4-(2,5-dimethylphenyl)piperazin-1-yl-)-2-oxoethyl)-1H-indole-2-carboxylic acid] the Cytotoxicity [1] was “no cytotoxicity”, the “Change in survival rate” value [1] was “around 10%” and the IC50 [2] was 3.8 µM.

Source: US20240287042A1, “NOVEL COMPOUND HAVING INHIBITORY ACTIVITY AGAINST PENDRIN, AND PHARMACEUTICAL USES THEREOF” (UIF (University Industry Foundation), Yonsei University, priority 2021, published 2024)
